This note sets out measurements from patent US20240174992A1, “SPLIT MODIFIED DEHALOGENASE VARIANTS” (Promega Corporation, priority 2022, published 2024).

Experiment [1] concerns HeLa cells. Briefly: Live cell labeling kinetics of split HaloTag fragments fused to BRD4 and Histone H3, time-lapse imaging. The class given is cell-based. As to conditions: 100 nM JF646, BRD4-HaloTag[3-19] and H3.3-HaloTag[22-297](M2F)-EGFP. As for the experimental part: FIG. 136. Timepoint imaging of complemented BRD4:Histone H3 complexes in live cells after addition of JF646 HaloTag ligand. […] Cells were immediately imaged after the ligand, 100 nM JF646, addition every 15 minutes for 1.5 hour. Imaging data were collected in the Far-red channel (Ex. 637 nm, top panel) and the green channel (Ex. 488 nm, bottom panel).
FIG. 137. Quantitation of live cell labeling kinetics of split HaloTag fragments fused to BRD4 and Histone H3 using time-lapse imaging. Cells were immediately imaged after the ligand addition every 10 minutes for 70 minutes. A Z-stack image was obtained at all time points to ensure all cells were captured in focus. The most focused Z levels were merged into one, and the intensity of all cells (6 total objects) was measured and averaged at all time points. The average of all cells' intensities present in the captured field of view were tracked in the far-red channel and the green channel over this period. […]
To measure the labeling rate, cells were immediately imaged after ligand addition every 10 minutes for 70 minutes (FIG. 137). […] The most focused Z levels were merged into one, and the intensity of all cells (6 total objects) was measured and averaged at all time points. […]

In experiment [2] the target is T1, Calmodulin:M13 interaction (Homo sapiens, UniProt P0DP23).
T1 construct: HaloTag[3-19]; expressed in transfected cells; host or cells: HeLa cells
Briefly: Calmodulin:M13 interaction with split HaloTag, live cell imaging in HeLa cells. The class given is cell-based. The procedure:
FIG. 142. Live cell imaging of split HaloTag function in detecting the interaction between Calmodulin protein with the M13 peptide induced upon the addition of Ca ions in live mammalian cells. […] Prior to imaging by confocal microscopy, cells were labeled with 100 nM JF646 HaloTag ligand for 30 minutes at 37° C. The imaging data were collected in the far-red channel (Ex. 637 nm) and the green channel (Ex. 488 nm).
FIG. 143. Background measurement of HaloTag[22-297](M2F) fused to M13 peptide in live mammalian cells at lower laser intensity To measure the background originating from labeling the HaloTag [22-297](M2F) fragment, cells were transfected with just the M13-HaloTag[22-297](M2F)-EGFP plasmid and imaged using the same microscope settings. The Imaging data were collected in the far-red channel (Ex. 637 nm) and the green channel (Ex. 488 nm).
FIG. 144. Quantitation of live cell imaging of split HaloTag function in detecting the Calmodulin and M13 peptide interaction in live mammalian cells. Comparison of the fluorescent intensity of all imaged cells across several fields of view in the presence or absence of Calcium chloride (6 mM) conditions compared against the background fluorescent intensity of the labeled non-complemented HaloTag[22-297](M2F) fragment alone. Each dot represents the intensity of an imaged cell. CellProfiler software is used for this analysis.

The target of experiment [3] is T1, Calmodulin:M13 interaction. The experiment in a line: Calmodulin:M13 interaction with split HaloTag, plate assay in live HeLa cells. The experiment is classed as cell-based. As for the experimental part: FIG. 140. Use of split HaloTag in detecting the interaction between Calmodulin and M13 peptide induced by the Calcium ions in live mammalian cells. […] The fluorescence activity was measured at indicated time points. For each construct, four technical replicates were tested. The bar for each construct is the mean of the four replicates, and the error bar represents the standard deviations.
FIG. 141. The fold response of split HaloTag in detecting the interaction between Calmodulin and M13 peptide induced by the Calcium ions in live mammalian cells. The fold response of each assay condition was calculated as the ratio of fluorescence signal for +Calcium chloride divided by −Calcium chloride treated cells (B). For each construct, four technical replicates have been tested. The bar for each construct is the mean of the four replicates, and the error bar represents the standard deviations.

The test system of experiment [4] is HeLa cells. Briefly: Split HaloTag FRB/FKBP plate-based fluorescent assay in live HeLa cells. The experiment is classed as cell-based. The settings on record: for performance of small HaloTag fragment: live HeLa cells, 500 nM Rapamycin, 50 nM JF646. As for the experimental part: FIG. 27A-B. Activity of split HaloTag combinations in live mammalian cells. HeLa cells transiently transfected with plasmids expressing the large HaloTag fragments fused to FRB and small HaloTag fragments fused to FKBP were incubated for 2 hours with 500 nM Rapamycin, followed by labeling with 50 nM JF646 HaloTag ligand prior to detection of fluorescence at indicated timepoints. FIG. 27A Fluorescence intensity of JF646 HaloTag ligand in live cell assays over time comparing cells treated or untreated with Rapamycin. FIG. 27B Fold response of each assay condition was calculated as the ratio of fluorescence signal for +Rapamycin/−Rapamycin treated cells.
FIG. 90. The activity of different small HaloTag fragments in live mammalian cells. HeLa cells transiently transfected with plasmids expressing the large HaloTag fragment fused to FRB and small HaloTag fragments fused to FKBP were incubated for 2 hours with 500 nM Rapamycin, followed by labeling with 50 nM JF646 HaloTag ligand prior to detection of fluorescence activity at indicated time points. Fluorescence intensity of JF646 HaloTag ligand in live cell assays over time comparing cells treated or untreated with Rapamycin.
FIG. 91. Fold response of different small HaloTag fragments in live mammalian cells. HeLa cells transiently transfected with plasmids expressing the large HaloTag fragment fused to FRB and small HaloTag fragments fused to FKBP were incubated for 2 hours with 500 nM Rapamycin, followed by labeling with 50 nM JF646 HaloTag ligand prior to detection of fluorescence activity at indicated time points. The fold response of each assay condition was calculated as the ratio of fluorescence signal for +Rapamycin/−Rapamycin treated cells.
FIG. 93. Activity comparison of HaloTag[22-297] variants in a protein complementation assay in live mammalian cells. HeLa cells transiently transfected with plasmids expressing the large HaloTag fragment fused to FRB and small HaloTag fragments fused to FKBP were incubated for 2 hours with 500 nM Rapamycin, followed by labeling with 50 nM JF646 HaloTag ligand prior to detection of fluorescence activity at indicated time points. Fluorescence intensity of JF646 HaloTag ligand in live cell assays over time comparing cells treated or untreated with Rapamycin.
FIG. 94. […] HeLa cells transiently transfected with plasmids expressing the large HaloTag fragment fused to FRB and small HaloTag fragments fused to FKBP were incubated for 2 hours with 500 nM Rapamycin, followed by labeling with 50 nM JF646 HaloTag ligand prior to detection of fluorescence activity at indicated time points. The fold response of each assay condition was calculated as the ratio of fluorescence signal for +Rapamycin/− Rapamycin treated cells. […]

Experiment [5] in a line: Complementation of N-terminal split HaloTag constructs in E. coli lysates, Janelia Fluor ligand fluorescence. The settings on record: FKBP fusion against HT(23-297)-FRB, 500 nM Rapamycin, JF646. The class given is biochemical. The procedure:
FIG. 21A-B. Comparison of complementation activity of N-terminal split HaloTag constructs. Each HaloTag fragment was expressed separately in E. coli and then combined after lysis. The smaller N-terminal HaloTag fragments as FKBP fusions were tested against the larger fragments of FIG. 21A HT(23-297)-FRB or FIG. 21B HT(22-297)-FRB. To each reaction, 500 nM Rapamycin was added and incubated at room temperature for 2.5 hours prior to addition of 50 nM JF646 ligand and measurement of fluorescence at the indicated timepoint.
FIG. 22. Comparison of truncations of N-terminal split HaloTag constructs. Each HaloTag fragment was expressed separately in E. coli and then combined after lysis. […] To each reaction, 500 nM Rapamycin was added and incubated at room temperature for 2 hours prior to addition of 50 nM JF646 ligand and measurement of fluorescence at the indicated timepoint.
FIG. 25A-B. Mutations in N-terminal split HaloTag fragments improve fluorescence intensity and fold response. […] To each reaction, 500 nM Rapamycin was added and incubated at room temperature for 2 hours prior to addition of 50 nM JF646 ligand and measurement of fluorescence at the indicated timepoint. FIG. 25A Fluorescence intensity is shown for +Rapamycin condition to show the overall system brightness relative to FIG. 25B Fold response following Rapamycin addition. […]

Regarding `C[Si]1(C)c2cc(N3CCC3)ccc2C2(OC(=O)c3ccc(C(=O)NCCOCCOCCCCCCCl)cc32)c2ccc(N3CCC3)cc21` [JF646], the “time for far-red channel signal to reach its maximum” value in experiment [1] was “about 40 minutes”.
In the case of `[Ca+2].[Cl-].[Cl-]` [calcium, Calcium chloride], the “change in fluorescence from split HaloTag complementation” value in experiment [2] (6 mM Calcium chloride, microscopy) is “significant increase in fluorescence”. Also, in experiment [2] (across all cell images, Calcium chloride 6 mM), the “increase in median fluorescence” value was determined as 7 ×. In addition, the “change in fluorescence of split HaloTag fused to Calmodulin and M13 peptide” value in experiment [3] is listed as “modest, calcium-dependent increase in fluorescence”.
As to “HT(4-19): small HaloTag fragment, residues 4-19, FKBP fusion”, the “performance of small HaloTag fragment” value in experiment [4] was “good fluorescence intensities and high fold responses”.
For “HT(8-19): truncated small N-terminal HaloTag fragment, residues 8-19, FKBP fusion”, the “complementation activity of truncated small fragment” value in experiment [5] is reported as “Complementation activity was demonstrated”.
With “HaloTag[1-30]: small HaloTag fragment, residues 1-30, FKBP fusion”, the “performance of small HaloTag fragment” value in experiment [4] was “best SmHT in this assay”. Besides, the background complementation result in experiment [4] (no Rapamycin) is recorded as “higher background (no Rapamycin) complementation”.
For the compound “HaloTag[3-19]: small HaloTag fragment, residues 3-19 of the HALOTAG sequence; used as fusion or synthetic peptide (EIGTGFPFDPHYVEVLG)”, the “performance of small HaloTag fragment” value in experiment [4] is “good fluorescence intensities and high fold responses”.
